{"source": "patent US6664086B2", "about": "“cDNA, genomic, and predicted protein sequences of learning-induced kinases” (priority 1998, dated 2003)", "key": {"[1]": {"tested_on": "eyeblink/nictitating membrane conditioned responses (CRs); infusion into dorsal anterior IN", "assay": "Eyeblink conditioning after drug infusion into the interpositus nucleus (IN)", "format": "in vivo, New Zealand White male rabbits (Oryctolagus cuniculus)", "procedure": "Rabbits underwent eyeblink training 30 min. after infusion of 1 ng of actinomycin D (ActD) or artificial cerebrospinal fluid (ACSF) into the dorsal anterior IN ipsilateral to the trained eye. Rabbits were trained with 10 paired tone-air trials per day to insure that ActD could act during learning (see Methods). […] Most animals in the experimental group reached criterion after 5 days of additional training without drug infusion.\nNew Zealand White male rabbits (Oryctolagus cuniculus), weighing between 2 and 3 kg were individually housed at the University of Southern California Hedco Neuroscience Building vivariunm with a 12-hr light and dark cycle. The experiment was conducted during the light phase of the cycle. Rabbits had ad lib access to food and water.\n(§1) Stainless steel guide cannulas (25 ga) were implanted in the head of the animals with the tip fixed at 1.5 to 2.0 mm dorsal to the IN ipsilateral to the eye to be trained (left) (stereotaxic coordinates from lambda: 0.8 mm anterior, 5.2 mm lateral, and 14.0 mm ventral). Each guide cannula was filled with an inner stainless steel stylet designed to keep the guide cannula patent. Animals were given 5 days to recover from surgery. At infusion the stylet was removed and an inner cannula (31 ga) was inserted to the target locus. Delivery of fluids through the inner cannula was accomplished by a 10 μl Hamilton syringe driven by a syringe pump. Fluids were delivered to the target area at a rate of 0.38 μl per min for 2.6 min. For the experimental group, 1 ng of ActD (in 1 μl of vehicle) was infused daily 30 min prior to the start of each training session for 5 days (n=7). […] The animals were given 2 days rest and then trained for 5 more days without drug infusion. At training day 11, the experimental group was treated with 1 μg muscimol which is known to reversibly inactivate the IN (Krupa and Thompson, 1997). For the control group, 1 μl of ACSF (vehicle) was infused into the IN for 5 days (n=5). At day 6, control animals were infused with 1 ng of ActD 30 min prior to training. On training day 7, 1 μg of muscimol was infused.\nFor the infusion experiments, all animals were subjected to eye-blink conditioning under the delay paradigm. The rabbits were allowed one day (1 hour) of habituation to the restrainer and the behavioral recording chamber. On the following day, paired tone-airpuff training began. For each day, the training session began 30 min post drug infusion and we gave only 10 trials/day (instead of the standard 100 trials per day, see below) in order to maximize the possibility that ActD was acting on the learning process before the long term memory had been well established. The tone CS was a 350 ms, 1000 Hz., 85 dB tone and the airpuff US was a 100 ms puff of air (3 psi at the source) delivered to the rabbit's cornea, the CS and US coterminating. The mean intertrial interval (ITI) was 60±10 sec. Nictitating membrane (NNI) conditioned responses (CRs) were measured using a minitorque potentiometer attached to a small loop of monofilament nylon thread on the NM of the rabbit's left, eye. Output of the potentiometer was digitized and recorded by computer. A conditioned response was defined as any NM extension response greater than 0.5 mm that occurred after tone onset but before airpuff onset. The intra- and intertrial timing, stimulus presentations, data collection and analysis were performed by a PC with a program written in Forth and machine language (Lavond and Steinmetz, 1989b)."}, "IN tissue": {"tested_on": "IN tissue", "assay": "Pilot dose studies of ActD infusion into the IN (tissue damage)", "format": "in vivo, New Zealand White male rabbits (Oryctolagus cuniculus)", "settings": "e.g. 5 ng, infused into IN", "from_the_text": "as §1, with “For the experimental group, 1 ng of ActD (in 1 μl of vehicle) was infused daily 30 min prior to the start of each training session for 5 days (n=7).” left out"}, "eyeblink conditioning": {"tested_on": "eyeblink conditioning", "settings": "infusion into the IN, rabbit (Bracha and Bloedel, 1996); cited from earlier work"}}, "note": "“Also recorded” adds a separate entry of the source. Starred links: 1 amine or outer side, 2 acyl side, 3 side chain; linkers in the order of their positions; H or OH if unused. Positions of bridges follow the written chain, without caps; N, C: chain ends. Non-standard residues stand in square brackets, D forms with d. Residues, ends and D or L forms follow the SMILES beside them. Chains are numbered I, II in the order given. Actinocin(9to1) = Cc1c2oc3c(C)ccc(C(=O)[*:1])c3nc-2c(C(=O)[*:2])c(N)c1=O; NMeV = CN[C@H](C(=O)O)C(C)C; Sar = CNCC(=O)O", "data": [{"compound": "Cc1c2oc3c(C)ccc(C(=O)N[C@@H]4C(=O)N[C@H](C(C)C)C(=O)N5CCC[C@H]5C(=O)N(C)CC(=O)N(C)[C@@H](C(C)C)C(=O)O[C@@H]4C)c3nc-2c(C(=O)N[C@@H]2C(=O)N[C@H](C(C)C)C(=O)N3CCC[C@H]3C(=O)N(C)CC(=O)N(C)[C@@H](C(C)C)C(=O)O[C@@H]2C)c(N)c1=O", "note": "[ActD, actinomycin D] (I: T[dV]P[Sar][NMeV] / II: T[dV]P[Sar][NMeV]; ester I:1-I:C, II:1-II:C; linker I:N-II:N via Actinocin(9to1))", "values": [{"measurement": "Acquisition of conditioned responses (CRs) during 5 days of training", "setting": "[1]; 1 ng infused into IN daily 30 min before training, 5 days, 10 paired CS-US trials per day, n=7, vs ACSF", "result": "low levels of CRs; also recorded: completely prevents learning; also recorded: inhibited eyeblink conditioning"}, {"measurement": "Expression of already acquired CRs", "setting": "[1]; 1 ng infused into IN on day 6 in control animals conditioned under ACSF (n=5)", "result": "did not prevent expression of acquired CRs; also recorded: no effect on the performance of CRs"}, {"measurement": "CRs on training without drug after ActD treatment (reversibility)", "setting": "[1]; experimental group, 2 days rest, then training days 6-10 without drug infusion", "result": "gradual increase of CRs"}, {"measurement": "Tissue damage at higher doses", "setting": "IN tissue", "result": "caused permanent damage to the tissue"}]}, {"compound": "COc1ccc(C[C@H]2NC[C@H](O)[C@H]2OC(C)=O)cc1", "note": "[anisomycin]", "values": [{"measurement": "Effect on eyeblink conditioning", "setting": "eyeblink conditioning", "result": "interfered with conditioning"}]}, {"compound": "NCc1cc(=O)[nH]o1", "note": "[muscimol]", "values": [{"measurement": "Expression of CRs, experimental group day 11", "setting": "[1]; 1 μg infused into IN at day 11, experimental group after retraining", "result": "completely abolished the expression of CRs"}, {"measurement": "Expression of CRs, control group day 7", "setting": "[1]; 1 μg infused into IN on day 7, conditioned control animals", "result": "completely abolished the CRs"}]}]}
